We go through one compound from patent US10729693B2, “Compositions and methods for the treatment of endometriosis” (PONCE MEDICAL SCHOOL FOUNDATION, INC., priority 2018, dated 2020).

Molecules are shown by their SMILES.

Assay [1] deals with CRHR1, CRHR2, CRH and GR mRNA in hippocampus. The experiment in a line: qRT-PCR of mRNA levels in hippocampus. Conditions: day 60. The assay is classed as in vivo, rat. On the procedure: Endometriosis vesicles and normal uterine tissue from endometriosis or sham rats, were lysed in an RLT buffer (QIAGEN, Germantown, Md.) using the BULLET BLENDER Tissue Homogenizer (NEXT ADVANCE, Averill Park, N.Y.). The total RNA from the lysates were extracted according to RNEASY Mini Kit manufacturer's protocol (QIAGEN, Germantown, Md.). RNA concentration and purity were measured on a NanoDrop™ 2000 UV spectrophotometer (Thermo Scientific™, Wilmington, USA). Concentration and quality of RNA samples were acquired based on the ratio of absorbance at 260/280 nm in the spectrophotometer. To carry out the synthesis of cDNA from RNA samples a total reaction volume of 20 μl including 0.1 μg of total RNA concentration and synthesis reagents was used. A iScript™ cDNA Synthesis Kit was used according to manufacturer's protocol (BIO-RAD, Hercules, Calif.). Reactions were carried out in T-100™ thermal cycler (BIO-RAD, Hercules, Calif.). RT-PCR running method was as follows: 25° C. for 5 min, 42° C. for 30 min, 85° C. for 5 min. Samples were stored at −80° C. for later experimentation or qRT-PCR.
Real time quantitative PCR (qPCR) was used to evaluate changes in mRNA expression. For this, 25 μl of a total volume of reaction assay was used with 1:10 dilution of cDNA with iQ™ SYBR Green Supermix (BIO-RAD Hercules, Calif.) in a 96 well plate according to the manufacturer protocol and amplified in a Quant Studio™ 12 K Flex Real time PCR System (Applied Biosystems™, Carlsbad, Calif.). Commercial primers for CRH, UCN1 CRHR1, CRHR2 and glucocorticoid receptor (GR) were purchased from QIAGEN (Germantown, Md.). Real time PCR cycles protocol was as follows: 95° C. for 10 min. for enzyme activation followed by 40 cycles of denaturing at 95° C. for 15 sec. and annealing at 60° C. for 1 min. All changes in gene expression were normalized against GAPDH of each sample. CT values and changes per gene expression level were automatically analyzed by the Quantstudio™ 12 K Flex Software (Applied Biosystems™, Carlsbad, Calif.). All samples were run in duplicate. For comparison purposes, mRNA from sham rats were always run within the same plate as experimental samples from vehicle treated and antalarmin treated groups.
Endometriosis and antalarmin have long-lasting effects in the brain. Previous work reported a decrease in CRH within hippocampus of animals with endometriosis compared to sham rats that were subject to stress. Given that antalarmin readily crosses the blood brain barrier, the effects of treatment in the hippocampus was quantified. […] It appears that the increase in CRH1 was balanced out by an equally similar increase in CRH2. This was not observed in the vehicle treated groups (FIGS. 10A and 10B). mRNA was collected and quantified as described in Example 1. […]
A general note: Real-time PCR tracks product formation cycle by cycle.

The test system of another assay is anxiety behaviors. The experiment in a line: Anxiety behaviors: open field and elevated zero maze. The assay is classed as in vivo, rat. Conditions: day 60; compared to sham group. The protocol:
One day before behavioral assessment and sacrifice a subset of rats (6 vehicle and 6 antalarmin) were subjected to an acute episode of swim stress of 10 min and compared to no stress controls to assess how rats respond to acute activation of the HPA axis. For this, animals were placed in a Plexiglas tank for 10 min in water at 25° C. Rats were towel dried and kept in warm cage after swim until fur dried. The next day, two behavioral tasks were used to assess anxiety behaviors. The open field test is used to quantify exploratory and locomotor activity of a rodent in an open arena. The apparatus used was a square wood arena (91×91×38 cm) with overhead light illumination and video monitoring to record animal activity using Any-Maze software (Stoelting, Wood Dale, Ill.). The following behaviors were quantified during 20 minutes: 1) total distance moved, 2) time spent moving, 3) time spent in the center of the arena, 4) time spent near the walls of the arena (defined by the 15 cm of floor arena closest to the walls) and 5) total fecal pellets. The more time the animal spends in the center of the arena compared to the space adjacent to the wall is considered as having less anxiety. At the end of the testing period, animals were returned to the home cage and after a 5-min break were tested in the elevated zero-maze.
The elevated zero-maze is very similar to the more traditional elevated plus maze test, with the advantage of not having a neutral (undefined) zone in the middle. The apparatus consisted of a circle with an arm width of 10 cm and elevated 40 cm from floor. […] Rats were allowed to run the maze for 5 consecutive minutes and recorded using the Any-Maze software (Stoelting, Wood Dale, Ill.). The following parameters were analyzed by the Any-Maze program: 1) total distance travelled in the maze, 2) time spent in the open/closed arms and 2) number of entries made by the rodent onto the open/closed arms. When 60% of the animal body entered the arm, the program counted is as an entry. In addition, total fecal pellets in the maze were quantified. […]

[2] abbreviates: normalized to sham, large variability.

For `CCCCN(CC)c1nc(C)nc2c1c(C)c(C)n2-c1c(C)cc(C)cc1C` [antalarmin], in assay [1] (compared to sham), the “hippocampal CRH mRNA” value is reported as “increase in hippocampal CRH mRNA of similar magnitude” and the “hippocampal GR mRNA” value is reported as “fourfold increase”. Further, in assay [1] (setting [2]), the “hippocampal CRHR1 mRNA increase” value stood at 15 fold and the “hippocampal CRHR2 mRNA increase” value amounted to 15 fold. Further, in the assay on anxiety behaviors, the “open field: total distance traveled” value is given as “significantly lower”, the “zero maze: locomotor activity” value was “higher locomotor activity” and the “zero maze: time in the open arms” value was “strong trend for both groups of rats with endometriosis to spend less time in the open arms”.
